The values that follow come from paper PMC3602187, “From Design to Screening: A New Antimicrobial Peptide Discovery Pipeline” (PLoS ONE, 2013).

The assay has as its system Listeria innocua 33090. Kind of assay: colony overlay assay of peptide-secreting E. coli clones (library screening and re-test). On the set-up: key: higher activity group (H); equal activity group (E); lower activity group (L). The note with it: library screening; selected colonies pooled by zone size; peptides identified by 454 sequencing, full-length sequences with minimum 20 reads. The class given is cell-based. As for the experimental part: For the in vivo production of AMPs, we have employed an E. coli expression system that relies on periplasmic-expression of recombinant peptides in a host cell that lacks the lpo membrane protein, thus releasing the peptides present in the periplasmic space outside the cells. When the producer cells are grown into colonies on a solid substrate, it leads to accumulation of the recombinant peptides around the colony and allows for easy library screening. The screening assay used in this study was a modified version of the standard agar diffusion method as previously described. Library-transformed E. coli colonies are overlaid with a tester strain and incubated overnight to allow for peptide expression and tester strain growth. Next day, the plates are inspected for the formation of clear growth inhibition zones around E. coli colonies, which is an indication of active AMP production by the host colony.
For the construction of Pln-423 mutant library in E. coli, the expression system that consists of a periplasmic-leaky E. coli strain JE5505 and the expression plasmid pFLAG-CTS was employed for direct screening of peptide activities. It should be noted here that this plasmid contains ompA secretion signal sequence and cleavage of this sequence results in a serine residue at the N-terminal of all mature peptides. A total of 1.0×10^5 colonies, approximately 8-fold coverage of the library, were screened against Listeria innocua 33090 in five separate screening experiments. L. innocua was previously deemed as a suitable indicator for pathogenic L. monocytogenes displaying similar bacteriocin sensitivity, therefore it was used as a surrogate strain throughout this study. The selection process involved two criteria; 1) the size of the each inhibition zone was compared to that of wild-type Pln-423 as a correlation to anti-listerial activity level, 2) when several colonies formed inhibition zones that are very similar in size and character, only a few from each group were selected. The colonies were pooled into three groups based on their activities, giving 43 clones in a higher activity group (H), 81 clones in an equal activity group (E), and 241 clones in a lower activity group (L). Their plasmids were extracted from each activity group and analyzed by both Sanger and 454 high-throughput sequencing to identify peptide sequences.
These clones were also re-tested by colony overlay assay to compare their activities to wild-type Pln-423 based on the size of the inhibition zone around each clone (Figure 2-A). Based on this assay, all ten plantaricin mutants formed larger inhibition zones (10.3±0.5 to 11.4±0.3 mm zone diameter) compared to wild-type Pln-423 (6.2±0.2 mm) against L. innocua 33090. Out of those ten, three clones have a single mutation and […] clones have two mutations and the remaining single clone has three mutations. […] Positions like Ser23, Ser27, His28, and Lys36 were commonly mutated with similar amino acids indicating their potential role on higher peptide activity.
The screening method used in this study was a modified version of the standard colony overlay method as previously described. All the chemicals and growth media supplements were obtained from either Sigma-Aldrich or Fisher Scientific unless otherwise stated. Transformed E. coli JE5505 cells were diluted to 3000–5000 cfu (determined empirically prior to screening by plating serial dilutions of E. coli suspensions of a known absorbance and counting the colonies after incubation) in 25 ml LB soft agar (0.8%, 45°C) per screening plate and poured into 150 mm petri dishes. Once the media was solidified, they were overlaid with 10 ml LB soft agar (45°C) and incubated at 37°C for 24 h for host-colony formation. Next day, these plates were re-overlaid with 10 ml TSB soft agar containing 1 mM IPTG and the indicator strain Listeria innocua ATCC 33090 (diluted to OD600 = 0.03). […]
On to “KYYGNGVTCGKHSCSVNWGQAFSCSVSHLANFGHGEC* [Pep-1_110]”, for which the “activity group by size of inhibition zone compared to wild-type Pln-423” value is recorded as “H”.
Regarding “KYYGNGVTCGKHSCSVNWGQAFSCSVSHLANFGHGKC* [GROUP E-UM-11]”, the “activity group by size of inhibition zone compared to wild-type Pln-423” value is recorded as “E”.
Take “KYYGNGVTCGKHSCSVNWGQAFSCSVSHLANFGHGKC* [GROUP L-UM-27]”: the “activity group by size of inhibition zone compared to wild-type Pln-423” value is recorded as “L”.
As to “KYYGNGVTCGKHSCSVNWGQAFSCSVSHLANFGHGLC* [Pep-1_112]”, the “activity group by size of inhibition zone compared to wild-type Pln-423” value is recorded as “L”.
Next, “KYYGNGVTCGKHSCSVNWGQAFSCSVSHLANFGHGRC* [GROUP L-UM-25]”: “L”; “KYYGNGVTCGKHSCSVNWGQAFSCSVSHLANFGHGSC* [Pep-1_111]”: “L and E”.
Next, “KYYGNGVTCGKHSCSVNWGQAFSCSVSHLANFGHGWC* [Pep-1_114]”: “L”; “KYYGNGVTCGKHSCSVNWGQAFSCSVSHLANFGHNWC* [Pep-2_12339]”: “E”; “KYYGNGVTCGKHSCSVNWGQAFSCSVSHLANFGHRAC* [Pep-2_11153]”: “L”.
Consider “KYYGNGVTCGKHSCSVNWGQAFSCSVSHLANFGIGLC* [GROUP L-UM-3]”, for which the “activity group by size of inhibition zone compared to wild-type Pln-423” value is reported as “L”.
To “KYYGNGVTCGKHSCSVNWGQAFSCSVSHLANFGKGKC* [GROUP L-UM-11]” belongs “L”; to “KYYGNGVTCGKHSCSVNWGQAFSCSVSHLANFGMGEC* [Pep-2_10826]”, “H”; to “KYYGNGVTCGKHSCSVNWGQAFSCSVSHLANFGMGYC* [Pep-2_10827]”, “H”.
Next, “KYYGNGVTCGKHSCSVNWGQAFSCSVSHLANFGRGKC* [Pep-1_97]”: “L”; “KYYGNGVTCGKHSCSVNWGQAFSCSVSHLANFGSGKC* [Pep-1_99]”: “E”.
To “KYYGNGVTCGKHSCSVNWGQAFSCSVSHLANFGWGKC* [Pep-1_102]” belongs “L”.
With “KYYGNGVTCGKHSCSVNWGQAFSCSVSHLANFSHGKC* [GROUP L-UM-18]”, the “activity group by size of inhibition zone compared to wild-type Pln-423” value is “L”.
Turning to “KYYGNGVTCGKHSCSVNWGQAFSCSVSHLANGGHGKC* [Pep-1_89]”, the “activity group by size of inhibition zone compared to wild-type Pln-423” value is “L”.
To “KYYGNGVTCGKHSCSVNWGQAFSCSVSHLANIGHGEC* [Pep-2_11890]” belongs “L”; to “KYYGNGVTCGKHSCSVNWGQAFSCSVSHLANMGHGKC* [Pep-1_88]”, “H”.
“KYYGNGVTCGKHSCSVNWGQAFSCSVSHLAWFGHGHC* [Pep-2_9097]”: the “activity group by size of inhibition zone compared to wild-type Pln-423” value is “L”.
To “KYYGNGVTCGKHSCSVNWGQAFSCSVSHLAWFGHGKC* [Pep-1_84]” belongs “L”; to “KYYGNGVTCGKHSCSVNWGQAFSCSVSHMANFGHGKC* [Pep-1_70]”, “L”; to “KYYGNGVTCGKHSCSVNWGQAFSCSVSHWANFGHGKC* [GROUP L-UM-32]”, “L”.
Next, “KYYGNGVTCGKHSCSVNWGQAFSCSVSILANFGHGKC* [GROUP L-UM-6]”: “L”.
Next, “KYYGNGVTCGKHSCSVNWGQAFSCSVSKLAHFGHGKC* [Pep-2_8515]”: “L”; “KYYGNGVTCGKHSCSVNWGQAFSCSVSKMANFGHGKC* [Pep-2_7543]”: “L”; “KYYGNGVTCGKHSCSVNWGQAFSCSVSNLANFGHGCC* [Pep-2_6834]”: “L”.
On to “KYYGNGVTCGKHSCSVNWGQAFSCSVSNLANFGHGKC* [Pep-1_63]”, for which the “activity group by size of inhibition zone compared to wild-type Pln-423” value is “E”.
To “KYYGNGVTCGKHSCSVNWGQAFSCSVSNLANFGHGRC* [Pep-2_6829]” belongs “L”.
As to “KYYGNGVTCGKHSCSVNWGQAFSCSVSNLANFGRGKC* [Pep-2_6817]”, the “activity group by size of inhibition zone compared to wild-type Pln-423” value is “L”.
With “KYYGNGVTCGKHSCSVNWGQAFSCSVSRLAAFGHGKC* [Pep-2_6587]”, the “activity group by size of inhibition zone compared to wild-type Pln-423” value is on record as “L”.
To “KYYGNGVTCGKHSCSVNWGQAFSCSVSRLANFGEGKC* [Pep-2_6602]” belongs “H”.
Next, “KYYGNGVTCGKHSCSVNWGQAFSCSVSRLANFGHGKC* [Pep-1_61]”: “E and H”.
Next, “KYYGNGVTCGKHSCSVNWGQAFSCSVSRVANFGHGKC* [Pep-2_6574]”: “L”.
As for “KYYGNGVTCGKHSCSVNWGQAFSCSVSSLANFGHGKC* [GROUP E-UM-3]”, the “activity group by size of inhibition zone compared to wild-type Pln-423” value was “E”.
With “KYYGNGVTCGKHSCSVNWGQAFSCSVSSLANFGHGLC* [Pep-2_12081]”, the “activity group by size of inhibition zone compared to wild-type Pln-423” value is “E”.
Next, “KYYGNGVTCGKHSCSVNWGQAFSCSVSVLANFGHGKC* [Pep-1_64]”: “E”; “KYYGNGVTCGKHSCSVNWGQAFSCSVSVLANFGHGNC* [Pep-2_6939]”: “L”.
Next, “KYYGNGVTCGKHSCSVNWGQAFSCSVSVLANFGHNKC* [Pep-2_6933]”: “L”.
To “KYYGNGVTCGKHSCSVNWGQAFSCSVSVLANFGNGKC* [Pep-2_6927]” belongs “H”.
For the substance “KYYGNGVTCGKHSCSVNWGQAFSCSVSWLANFGHGKC* [GROUP L-UM-12]”, the “activity group by size of inhibition zone compared to wild-type Pln-423” value is “L”.
Next, “KYYGNGVTCGKHSCSVNWGQAFSCSVSWLANFGSGKC* [Pep-2_10680]”: “L”; “KYYGNGVTCGKHSCSVNWGQAFSCSVTHIANFGHGKC* [Pep-2_6142]”: “L”.
To “KYYGNGVTCGKHSCSVNWGQAFSCSVTHLANFGHAKC* [Pep-2_6179]” belongs “E”; to “KYYGNGVTCGKHSCSVNWGQAFSCSVTHLANFGHGKC* [Pep-1_57]”, “L and E”.
To “KYYGNGVTCGKHSCSVNWGQAFSCSVTHLANFGHGRC* [Pep-2_6181]” belongs “E”.
Take “KYYGNGVTCGKHSCSVNWGQAFSCSVTHLANFGLGKC* [Pep-2_6172]”: the “activity group by size of inhibition zone compared to wild-type Pln-423” value was “E”.
To “KYYGNGVTCGKHSCSVNWGQAFSCSVTHLASFGHGKC* [Pep-2_6153]” belongs “L”.
To “KYYGNGVTCGKHSCSVNWGQAFSCSVTILANFGHGKC* [Pep-2_6136]” belongs “L”.
On to “KYYGNGVTCGKHSCSVNWGQAFSCSVVHIANFGHGKC* [Pep-2_6250]”, for which the “activity group by size of inhibition zone compared to wild-type Pln-423” value is “H”.
Next, “KYYGNGVTCGKHSCSVNWGQAFSCSVVHLANFGHGKC* [Pep-1_58]”: “L and E”; “KYYGNGVTCGKHSCSVNWGQAFSCSVVHLVNFGHGKC* [Pep-2_6256]”: “L”.
Next, “KYYGNGVTCGKHSCSVNWGQAFSCSWSHLANYGHGKC* [Pep-2_5835]”: “L”; “KYYGNGVTCGKHSCSVNWGQAFSCTVEHLANFGHGKC* [Pep-2_6015]”: “E and H”.
